Data reported in US4822804A, “5,6,7,-trinor-4,8-inter-m-phenylene 2-nor PGI2 derivatives and anti-ulcer, anti-thrombotic and anti-hypertensive pharmaceutical compositions containing them” (Toray Industries, Inc., priority 1981, dated 1989).
Converted amounts (≈) assume the structure as drawn.

What was measured:
gastric juice secretion = assay: Gastric juice secretion inhibition (Shay's method), subcutaneous; format: in vivo
Human Platelet = assay: Human platelet aggregation inhibiting activity (aggregating agent ADP); format: cell-based; conditions: human platelet rich plasma, read-out: ID50, human platelet aggregation inhibiting activity
Experimental: Blood was collected from healthy volunteers using a disposable syringe containing 3.8% sodium citrate from the saphnous vein. The blood was centrifuged for 10 minutes at 160×g. The resultant supernatant liquid was used as platelet rich plasma (PRP). Aggregation was induced by […] ADP (Adenosine diphosphate). The inhibition rate was calculated against a control aggregation of 100%.
ED50 (effective dose 50) is defined as the dosage required to produce a response in 50% of the subjects to whom the compound is given.

gastric mucous membrane = assay: Protection against gastric mucous membrane lesion due to alcohol (Robert's method); format: in vivo; conditions: rat, oral
Experimental: Gastric cytoprotection was measured according to the method of Robert et al (Gastroenterol 77, 433-443, 1979). The rats fasted overnight and were given a necrotizing agent (0.2N NaOH 1 ml/rat (Method A) or Absolute EtOH (Method B)) and killed one hour later for the examination of gastric lesions. The test drug was administered 30 minutes before the necrotizing agent. The length of the lesion was measured and expressed in terms of the ulcer index. The effect of the drug was expressed in terms of the inhibition rate against the ulcer index of a control animal.

[1] = Arterial blood pressure of anesthetized rats, intravenous injection; format: in vivo; conditions: rat, i.v., pentobarbital anesthesia
Experimental: Under pentobarbital anesthesia (50 mg/kg s.c.), a catheter was inserted into the carotid artery. The blood pressure was measured via a pressure transducer on a polygraph.

[2] = Diarrhoea inducing action, subcutaneous; format: in vivo; conditions: up to the dose of 3 mg/kg, rat
platelet rich plasma = assay: Anti-aggregatory effect in platelet rich plasma (Born's method; arachidonic acid, ADP and collagen); format: cell-based; conditions: PRP of man or rabbit, ADP, collagen
[3] = neutral aqueous solution; cited from earlier work
[4] = as recognized in prostaglandin E1 and E2; cited from earlier work

Compound | IC50 (Human Platelet) [µg/mL] | blood pressure reducing activity relative to prostaglandin E1 [1] | duration of blood pressure reducing activity compared with prostaglandin E1 [1] | diarrhoea inducing action [2] | anti-aggregatory effect compared with prostaglandin E1 (platelet rich plasma) | also measured
5,6,7-trinor-4,9-inter-m-phenylene-17,18,19,20-tetranor-16-m-chlorophenoxy PGI2 [Compound 65] |  |  |  |  |  | effective dose in inhibiting gastric juice secretion (gastric juice secretion): 0.3 to 1 mg/kg; effective dose relative to the dose of prostaglandin E2, gastric juice secretion inhibition (gastric juice secretion): 0.1-0.3 times
CCCOC[C@H](O)/C=C/[C@@H]1[C@H]2c3cccc(CCC(=O)O)c3O[C@H]2C[C@H]1O (relative stereo) [5,6,7-trinor-4,8-inter-m-phenylene-2,17,18,19,20-pentanor-16-propoxy PGI2] | 0.048 (≈ 0.128 µM) |  |  |  |  | 
O=C(O)CCCc1cccc2c1O[C@H]1C[C@@H](O)[C@H](/C=C/[C@@H](O)COc3ccccc3)[C@@H]21 (relative stereo) [Compound 60, 5,6,7-trinor-4,8-inter-m-phenylene-17,18,19,20-tetranor-16-phenoxy PGI2] |  |  |  |  |  | effective dose relative to the dose of prostaglandin E2, gastric juice secretion inhibition (gastric juice secretion): 0.1-0.3 times
CCCOC[C@H](O)/C=C/[C@@H]1[C@H]2c3cccc(CCCC(=O)O)c3O[C@H]2C[C@H]1O (relative stereo) [Compound 66, 5,6,7-trinor-4,8-inter-m-phenylene-17,18,19,20-tertranor-16-propoxy PGI.su b.2] | 0.49 (≈ 1.25 µM) |  |  |  |  | 
CCOCC(C)(C)[C@H](O)/C=C/[C@@H]1[C@H]2c3cccc(CCCC(=O)O)c3O[C@H]2C[C@H]1O (relative stereo) [Compound 76, 5,6,7-trinor-4,8-inter-m-phenylene-16,16-dimethyl-18,19,20-trinor-17-ethoxyPGI2] |  |  |  |  |  | effective dose relative to the dose of prostaglandin E2, gastric juice secretion inhibition (gastric juice secretion): 0.1-0.3 times; gastric mucous membrane protecting activity relative to prostaglandin E2 (gastric mucous membrane): 0.3-1 times
O=C(O)/C=C/Cc1cccc2c1O[C@H]1C[C@@H](O)[C@H](/C=C/[C@@H](O)c3ccccc3)[C@@H]21 (relative stereo) [Compound 97, 5,6,7-trinor-4,8-inter-m-phenylene-2,3-dehydro-16,17,18,19,20-pentanor-15-phenyl-PGI2] |  | 1-2 times | more prolonged duration | do not exhibit the diarrhoea inducing actions | comparable or stronger anti-aggregatory effect | effective dose relative to the dose of prostaglandin E2, gastric juice secretion inhibition (gastric juice secretion): 0.1-0.3 times; gastric mucous membrane protecting activity relative to prostaglandin E2 (gastric mucous membrane): 0.3-1 times
CCCCC(C)[C@H](O)/C=C/[C@@H]1[C@H]2c3cccc(CCC(=O)O)c3O[C@H]2C[C@H]1O (stereo partly drawn) [5,6,7-trinor-4,8-inter-m-phenylene-2-nor-16-methyl PGI2] | 0.011 (≈ 0.0283 µM) |  |  |  |  | 
CCC[C@H](C)C[C@H](O)/C=C/[C@@H]1[C@H]2c3cccc(CCC(=O)O)c3O[C@H]2C[C@H]1O [5,6,7-trinor-4,8-inter-m-phenylene-2-nor-17(S)-methyl PGI2] | 0.0006 (≈ 0.00154 µM) |  |  |  |  | 
CCCCC(C)[C@H](O)/C=C/[C@@H]1[C@H]2c3cccc(CCCC(=O)O)c3O[C@H]2C[C@H]1O (stereo partly drawn) [5,6,7-trinor-4,8-inter-m-phenylene-16-methyl PGI2] | 0.031 (≈ 0.077 µM) |  |  |  |  | 
CCC[C@H](C)C[C@H](O)/C=C/[C@@H]1[C@H]2c3cccc(CCCC(=O)O)c3O[C@H]2C[C@H]1O [5,6,7-trinor-4,8-inter-m-phenylene-17(S)-methyl PGI2] | 0.005 (≈ 0.0124 µM) |  |  |  |  | 
CCCCCCC(O)C#CC1C(O)CC2Oc3c(CCCC(=O)O)cccc3C21 (stereo not drawn) [Compound 6, 5,6,7,-trinor-4,8-inter-m-phenylene-13,14-didehydro-20-methyl-PGI2] |  | 1-2 times | more prolonged duration | do not exhibit the diarrhoea inducing actions | comparable or stronger anti-aggregatory effect | 
O=C(O)CCCc1cccc2c1OC1CC(O)C(C#CC(O)C3CCCCC3)C21 (stereo not drawn) [Compound 9, 5,6,7,-trinor-4,8-inter-m-phenylene-13,14-didehydro-15-cyclohexyl-16,17,18,19,20-pentanor PGI2] |  | 1-2 times | more prolonged duration | do not exhibit the diarrhoea inducing actions | comparable or stronger anti-aggregatory effect | 
COC(=O)CCCc1cccc2c1O[C@H]1C[C@@H](O)[C@H](C#CC(O)c3ccccc3)[C@@H]21 (stereo partly drawn) [Compound 19, 5,6,7-trinor-4,8-inter-m-phenylene-13,14-didehydro-15-phenyl-16,17,18,19,20-pentanor PGI2 methyl ester] |  | 1-2 times | more prolonged duration | do not exhibit the diarrhoea inducing actions | comparable or stronger anti-aggregatory effect | effective dose relative to the dose of prostaglandin E2, gastric juice secretion inhibition (gastric juice secretion): 0.1-0.3 times; gastric mucous membrane protecting activity relative to prostaglandin E2 (gastric mucous membrane): 0.3-1 times
CCCC(C)C[C@H](O)/C=C/[C@@H]1[C@H]2c3cccc(CCCC(=O)O)c3O[C@H]2C[C@H]1O (stereo partly drawn) [Compound 48, 5,6,7-trinor-4,8-inter-m-phenylene-17-α-methyl PGI2] |  | 1-2 times | more prolonged duration | do not exhibit the diarrhoea inducing actions | comparable or stronger anti-aggregatory effect | 
CCCC(C)CC(O)C=CC1C(O)CC2Oc3c(CCCC(=O)O)cccc3C21 (stereo not drawn) [Compound 49, 5,6,7-trinor-4,8-inter-m-phenylene-17-β-methyl PGI2] |  | 1-2 times | more prolonged duration | do not exhibit the diarrhoea inducing actions | comparable or stronger anti-aggregatory effect | 
CCCCC(C)C[C@H](O)/C=C/[C@@H]1[C@H]2c3cccc(CCCC(=O)O)c3O[C@H]2C[C@H]1O (stereo partly drawn) [Compound 55, 5,6,7-trinor-4,8-inter-m-phenylene-17-α-methyl-20-homo PGI2] |  | 1-2 times | more prolonged duration | do not exhibit the diarrhoea inducing actions | comparable or stronger anti-aggregatory effect | 
CCCCC[C@H](O)/C=C/[C@@H]1[C@H]2C/C(=C/CCCC(=O)O)O[C@H]2C[C@H]1O [PGI2, Prostaglandin I2] |  |  |  |  |  | stability in aqueous solution [3]: very unstable even in a neutral aqueous solution
CCCCC[C@H](O)/C=C/[C@H]1[C@H](O)CC(=O)[C@@H]1C/C=C\CCCC(=O)O [prostaglandin E2] |  |  |  |  |  | diarrhoea inducing action of reference prostaglandins [4]: diarrhoea inducing actions recognized
